≈ marks a conversion by molar mass, not a printed value.
Test system: Pyricularia oryzae
Assay: Inhibition of spore germination of Magnaporthe oryzae
Assay type: functional
Conditions: read-out: ED50 (the source's name)

Row | Structure (SMILES) | EC50
1 | C/C=C(\C)CC/C=C(\C)C(=O)OCC(C)(C)CC1=C(O)C(=O)c2ccccc2C1=O [RHINACANTHIN C] | 0.2 µg/mL (≈ 0.487 µM)
2 | CC1(C)COC2=C(C1)C(=O)C(=O)c1ccccc12 [RHINACANTHONE] | 0.4 µg/mL (≈ 1.65 µM)
